Values of other authors in patent publication US10149395B2, “Water-based organic solderability preservative, and electronic board and surface treatment method using the same” (TAMURA CORPORATION, priority 2016, dated 2018).

Conditions: at 20 degrees C.

solubility to water | SMILES
18.5 g/100 g | COCC(C)OC(C)=O (stereo not shown) [Organic solvent F, propylene glycol monomethyl ether acetate]
0.4 g/100 g | CCCCOCC(C)OCC(C)OCC(C)O (stereo not shown) [Organic solvent H, butylpropylene triglycol]
0.3 g/100 g | CCCCOCCOCCOCCCC [Organic solvent I, diethylene glycol dibutylether]
miscible in all proportions | CCO [Organic solvent J, ethyl alcohol]
miscible in all proportions | CC(C)O [Organic solvent K, isopropyl alcohol]

Second part, the compound before the results:

SMILES | solubility to water
COC(C)COC(C)COC(C)CO (stereo not shown) [Organic solvent A, tripropylene glycol monomethyl ether] | miscible in all proportions
COCC(C)O (stereo not shown) [Organic solvent C, propylene glycol monomethyl ether] | miscible in all proportions
COCCOCCOCCOCCOC [Organic solvent D, tetraethylene glycol dimethyl ether] | miscible in all proportions
OCC1CCCO1 (stereo not shown) [Organic solvent E, tetrahydrofurfuryl alcohol] | miscible in all proportions
OCCOc1ccccc1 [Organic solvent G, phenyl glycol] | 2.7 g/100 g
